Source: patent US5155123A, “Pyridine derivatives and pharmaceutical compositions containing them” (Richter Gedeon Vegyeszeti Gyar R.T., priority 1989, dated 1992)
Like-named read-outs stand apart in the source and are kept apart here.

How the values were obtained:
[1] = tested on: gastric acid secretion; assay: gastric acid secretion-inhibiting effect, Shay's method (pylorus-ligated rats); format: in vivo, rat (female H-Wistar); conditions: Rattus norvegicus
Method: According to this method female H-Wistar rats weighing 120 to 150 g were starved in latticed cages for 24 hours. The animals received water ad libitum. Then their pylorus was ligated under a slight ether anaesthesia. The test compounds were administered during the surgical intervention. After 4 hours the animals were killed by ether narcosis. After excision of the stomach the volume and pH value of the gastric content were measured. In several cases the hydrochloric acid content was determined by titration.

[2] = tested on: gastric ulcers induced in rats by indomethacine; assay: inhibition of gastric ulcers induced by indomethacine in rats; format: in vivo, rat; conditions: 50 mg/kg oral dose, ulcers induced by 40 mg/kg s.c. indomethacine
Method: An 50 mg/kg oral dose of 1-benzyl-2-(cyanoimino)pyridine inhibits the development of gastric ulcers induced in rats by 40 mg/kg subcutaneous (s.c.) dose of indomethacine (chemically [1-(4-chlorobenzoyl)-2-methyl-5-methoxyindol-3-yl]acetic acid) by 100%.

[3] = tested on: rats; conditions: rat, in vivo, po, 120 mg/kg
[4] = Shay's method, female H-Wistar rats 120 to 150 g, starved 24 hours, pylorus ligated, 4 hours, given during the surgical intervention, read-out: ED50

Row | SMILES | ED50 [1, 4] | further results
1 | O=[N+]([O-])N=c1ccccn1Cc1ccccc1 [1-benzyl-2-(nitroiminopyridine, 1-benzyl-2-(nitroimino)pyridine] | 13.6 mg/kg | 
2 | N#CN=c1ccccn1Cc1ccccc1Cl [1-(2-chlorobenzyl)-2-(cyanoimino)pyridine] | 1.8 mg/kg | 
3 | N#CN=c1ccccn1Cc1cccc(Cl)c1 [1-(3-chlorobenzyl)-2-(cyanoimino)pyridine] | 9.88 mg/kg | 
4 | N#CN=c1ccccn1Cc1ccccc1F [2-(cyanoimino)-1-(2-fluorobenzyl)pyridine] | 4.3 mg/kg | 
5 | N#CN=c1ccccn1Cc1ccc(F)cc1 [2-(cyanoimino)-1-(4-fluorobenzyl)pyridine] | 8.36 mg/kg | 
6 | N#CN=c1ccccn1Cc1ccccc1 [1-benzyl-2-(cyanoimino)pyridine] | 3.26 mg/kg | inhibition of the development of gastric ulcers [2]: 100%; toxic symptom [3]: No toxic symptom
7 | Cc1ccccc1Cn1ccccc1=NC#N [2-(cyanoimino)-1-(2-methylbenzyl)pyridine] | 11.7 mg/kg | 
8 | CN=C(NC#N)NCCSCc1nc[nH]c1C [cimetidine, 1-cyano-2-methyl-3-[2-[[(5-methylimidazol-4-yl)methyl]thio]ethyl]-guanidine, reference compound] |  | ED50 ([1]; po, 4 h, read-out: oral ED50): 50 mg/kg
9 | N#CN=c1ccccn1Cc1cccc(C(F)(F)F)c1 [2-(cyanoimino)-1-(3-trifluoromethylbenzyl)pyridine] | 12.2 mg/kg | 
